From patent publication US10328056B2, “Priming of pancreatic tumor cells and cancer stem cells to TRAIL-induced apoptosis” (Alliance of Cardiovascular Researchers, priority 2014, dated 2019) come the findings set out here.

In series [1] the test system is adipose tissue-derived stem cells (ASCs). Briefly: Differentiation assay of ASCs. The class given is cell-based, human. As for the experimental part: Adipose tissue-derived stem cells were seeded in the following concentrations: adipogenic differentiation, 1×10^4 cells/cm^2; chondrogenic differentiation, 1.6×10^7 cells/cm2; and osteogenic differentiation, 5×10^3 cells/cm^2. After a 2-hour incubation with 20% FBS-containing medium, cells were washed, and the respective differentiation media were added (Invitrogen StemPro differentiation kits). Differentiation media were changed twice a week. After 14 to 21 days, cells were fixed with 4% formaldehyde for 30 minutes and stained with Oil Red O for lipid vesicles (adipogenic differentiation), Alcian Blue for proteoglycans (chondrogenic differentiation), and Alizarin Red S for calcium deposits (osteogenic differentiation) as reported previously. Bai X, Alt E. “Myocardial regeneration potential of adipose tissue-derived stem cells” Biochemical and Biophysical Research Communications. 401 (2010) 321-6.

Another series in a line: MTT cell viability assay. The settings on record: human, low-dose 0.5 μM or 1.0 μM. The series is classed as cell-based. As for the experimental part:
(§1) Cells were seeded in a 96-well plate at a density of 4000 to 5000 cells per well (70%-80% confluence) in triplicate. Non-adherent cells were washed with PBS, and different substrate dilutions were added. After 24 hours, 3-(4,5-dimethylthiazol-2-yl)-2,5-diphenyltetrazolium bromide (MTT) assay (Roche, Mannheim, Germany) was performed according to the manufacturer's instructions. Results were measured at 570 nm and background at 650 nm on a microplate reader (Molecular Devices).

Series [2] deals with CSC-enriched pancreatic cancer spheres. Briefly: Sphere forming assay. The class given is cell-based. The settings on record: high-dose treatment group (control 40%). As for the experimental part: Sphere-forming medium consisted of MEMα supplemented with L-glutamine, putrescine, insulin (all from Sigma-Aldrich), […] (20 ng/mL), basic fibroblast growth factor (10 ng/mL), and B-27 supplement (Gibco). For first generation, attached cells were trypsinized, washed twice with PBS, and seeded in sphere-forming medium as single cell suspensions with clonal density (5,000-10,000 cells/mL) on ultra-low-attachment plates (Corning). After 7 to 10 days, spheres were harvested by gravitation in a tube, trypsinized, washed twice with PBS, and reseeded as described above for the next higher generation. To quantify sphere-forming ability, cells were prepared as described in the preceding paragraph and seeded in 96-well ultra-low-attachment plates at 500 to 1000 cells per well. Medium was supplemented with 1% methylcellulose to prevent cell-cell attachments. Medium was added or renewed every 3 days, and spheres were quantified at day 10 to 12.

The test system of series [3] is adipose tissue-derived stem cells (ASCs). Briefly: MTT proliferation assay of adipose tissue-derived stem cells. To be noted: 10.0 μM or 20.0 μM. The series is classed as cell-based, human. The protocol: as §1
For measurement of cell proliferation, cells were seeded into 24-well plates. After 24 hours, cells were washed with PBS, and medium with different dilutions of JNKi was added. Viable cells were then counted daily with a standard trypan blue stain protocol.
On the technique in general: Tetrazolium assays rely on reduction of a dye to a coloured formazan, in cell work by metabolically active cells.

The next series has as its system MiaPaCa2 tumors. As to the kind of experiment: Orthotopic MiaPaCa2 tumor model. The series is classed as in vivo, mice. To be noted: for #tumors at 6 wks: JNKi 1 mg/kg oral 5x/week, TRAIL 1 mg/kg i.p. 2x/week, gemcitabine 80 mg/kg 2x/week; for % tumor presence at 6 wks / Kidney mets / Liver mets / Peritoneal mets / Spleen mets: same regimens; for Kidney mets / Liver mets / Peritoneal mets / Spleen mets: at 6 wks. As for the experimental part:
Age-matched male swiss nu/nu mice (6-8 weeks old) were injected orthotopically with pancreatic tumor cells. All procedures were performed in accordance with the guidelines of the Institutional Animal Care and Use Committee at The University of Texas MD Anderson Cancer Center (ACDF Protocol #12-12-12631). Animals were anesthetized with isoflurane anesthesia (1%-3% via inhalation), and an incision was made in the left abdominal flank. The spleen was located and extracted, and 1×10^6 pancreatic cells in 50 μL of PBS were injected into the underlying tail of the pancreas. The abdominal wall was closed with sterile absorbable sutures, and wound clips were applied to the skin. Animals were monitored daily and after two weeks of untreated tumor growth randomly assigned to different treatment groups: control (no treatment), JNKi (1 mg/kg) was administered by oral gavage five times per week; gemcitabine (80 mg/kg) or TRAIL (1 mg/kg) was injected intraperitoneally with a 27-G needle two times per week or JNKi and TRAIL together at the dosages indicated above. Weight, tumor growth, and health status were clinically followed for 4 weeks. At day 42, animals were euthanized, and blood and tissues were collected for postmortem analysis.

The next series relates to L3.6pl cells. As to the kind of experiment: MTT cell viability assay. The series is classed as cell-based. The settings on record: compared to TRAIL alone. The protocol: as §1
The next series deals with IL-8, CXCR1, DcR1, c-Jun. As to the kind of experiment: qRT-PCR of IL-8 axis genes. The class given is cell-based. The settings on record: IL-8 treatment. As for the experimental part:
(§2) For total RNA extraction, cells were homogenized with TRIzol (Invitrogen). Phase separation was performed by the addition of chloroform and subsequent centrifugation steps. Aqueous phase of samples was collected, and RNA was precipitated by isopropyl alcohol. After washing, RNA was redissolved in DEPC-treated water, and RNA quality and quantity were measured with a Nanodrop ND-1000 Spectrophotometer (Thermo Scientific). For cDNA synthesis, the iScript Reverse Transcription Supermix (Bio-Rad) was used according to the manufacturer's protocol, and the reaction mix was incubated in a thermal cycler (Bio-Rad MyIQ Single-Color RT-PCR Detection System iCycler) with the following protocol: priming (5 minutes at 25° C.), reverse transcription (30 minutes at 42° C.), and reverse transcription inactivation (5 minutes at 85° C.). qRT-PCR was performed using iQ SYBR Green Supermix (Bio-Rad) according to the following protocol: initial denaturation and enzyme activation (1 cycle at 95° C. for 3 minutes), denaturing (40 cycles at 95° C. for 15 seconds) with annealing and extension (40 cycles at 55° C. for 30 seconds), and melting curve (1 cycle at 55° C.-95° C. in […] for 30 seconds). The Ct (cycle threshold) value was measured in absolute quantification (of cycles of amplification) and compared to β-actin, which served as a housekeeping gene.
In general terms: Quantitative PCR measures a nucleic acid by following its amplification.

Series [4] concerns TRAIL-resistant L3.6pl cells (L3.6plTR). Briefly: Cell viability / cell death in TRAIL-resistant cells. The class given is cell-based. The protocol:
as §1

The test system of the next series is DcR1. Briefly: qRT-PCR of TRAIL decoy receptor. The class given is cell-based. The settings on record: vs control samples. The protocol:
as §2

The subject of another series is p-JNK. As to the kind of experiment: PathScan p-SAPK/JNK sandwich ELISA. The class given is cell-based. To be noted: L3.6plTR cells vs untreated control. The protocol:
Protein lysates were obtained from adherent cells or spheres after 1-hour of incubation with JNKi and/or TRAIL. Protein quantification was performed, and PathScan Sandwich ELISA Antibody Pair (Cell Signaling Technologies) was performed according to the manufacturer's instructions.
Background: In an ELISA, binding on a coated surface is turned into a signal by an enzyme label.

In a further series the test system is DR4 and DR5. Briefly: qRT-PCR of TRAIL death receptors. The class given is cell-based. To be noted: vs control samples. The protocol: as §2
The subject of the next series is L3.6pl spheres. Briefly: Acridine orange/ethidium bromide staining. The class given is cell-based. To be noted: 50 ng/mL, 24 hours. The source says: (§3) According to a protocol adapted from Todaro et al. (supra), attached cells or spheres were washed with PBS, stained with acridine orange/ethidium bromide, and visualized immediately with fluorescent microscopy.
The next series relates to L3.6pl parental cells. Briefly: Acridine orange/ethidium bromide staining. The class given is cell-based. To be noted: 50 ng/mL, 24 hours.
Excerpt: as §3

In series [5] the test system is parental pancreatic cancer cells. As to the kind of experiment: MTT cell viability assay, single agents. The class given is cell-based. To be noted: JNKi 0.5 μM alone; rhTRAIL 10 ng/mL alone. As for the experimental part: as §1
Another series concerns IL-8 secretion. As to the kind of experiment: Human CXCL8/IL-8 ELISA of culture supernatant. The class given is cell-based. As for the experimental part:
Cell culture supernatant was obtained after 24-hour treatments in triplicate. A human CXCL8/IL-8 Quantikine ELISA kit (R&D Systems) was used to measure human IL-8 according to the manufacturer's protocol. An IL-8 standard curve was performed to determine concentrations (in pg of cytokine per μL).

For series [6], the system named is CSC-enriched pancreatic cancer spheres. Briefly: MTT viability assay, spheres versus parental cells. The class given is cell-based. The settings on record: 25 ng/mL and 50 ng/mL. The protocol: as §1

For `Oc1c2ccccc2c2c3c(cccc13)N=N2` [JNKi, SP600125], the “differentiation into osteoblasts, chondrocytes, adipocytes” value in series [1] was “functionally unimpaired”. Moreover, the viability at 24 h in the series “MTT cell viability assay” (L3.6pl cells, 24 hours) stood at 80%. This compound showed a viability at 24 h in the series “MTT cell viability assay” (MiaPaCa2 cells) of 80%. For the same compound, the “spheres bigger than 150 μm in diameter” value in [2] was 0%. The “cell proliferative capacity, lower compared to untreated ASCs” value in series [3] stood at 20%. Moreover, in the series on MiaPaCa2 tumors, the “#tumors at 6 wks” value is listed as 4/4, the “% tumor presence at 6 wks” value is 100%, the Kidney mets is 0 and the Liver mets was determined as 1. Further, in the series on MiaPaCa2 tumors, the Peritoneal mets worked out at 0 and the Spleen mets is 1.

In the case of `Nc1ccn([C@@H]2O[C@H](CO)[C@@H](O)C2(F)F)c(=O)n1` [GEM, Gemcitabine], in the series with MiaPaCa2 tumors, the “#tumors at 6 wks” value is on record as 5/5, the “% tumor presence at 6 wks” value worked out at 100%, the Kidney mets was 0 and the Liver mets is listed as 1. Moreover, in the series with MiaPaCa2 tumors, the Peritoneal mets was determined as 1 and the Spleen mets stood at 3.

“IL-8: interleukin-8 added to cells in combination with TRAIL”: the “cell viability / apoptosis in combination with TRAIL” value (in the series on L3.6pl cells; in series [4] (compared to TRAIL alone)) was “neutralized the apoptosis-inducing power of TRAIL” each time. Moreover, the DcR1 expression result with IL-8, CXCR1, DcR1, c-Jun is on record as “upregulation of the decoy receptor DcR1”. Moreover, the “IL-8 and CXCR1 expression” value with IL-8, CXCR1, DcR1, c-Jun is “autostimulated IL-8 and CXCR1 expression”.

Take “TRAIL: recombinant human TNF-related apoptosis-inducing ligand from R&D Systems”: the “differentiation into osteoblasts, chondrocytes, adipocytes” value in series [1] is “functionally unimpaired”. For the same compound, the “expression of DcR1” value in the series on DcR1 is “increased the expression of the decoy receptor DcR1”. In addition, in the series with p-JNK, the p-JNK levels result is “increased p-JNK levels”. In addition, the “expression of DR4 and DR5” value with DR4 and DR5 was “reduced the presence of the apoptosis receptors DR4 and DR5”. In addition, the viability of spheres result in the series on L3.6pl spheres is recorded as “almost entirely viable”. The apoptosis entry in the series on L3.6pl parental cells is reported as “robust apoptosis”. Also, the cell viability entry in series [5] is “only modest effects”. The “TRAIL level at peak IL-8 secretion” value with IL-8 secretion (Panc1 cells, 24 hours) was 50 ng/mL. Besides, the IL-8 secretion entry with IL-8 secretion (TRAIL with or without JNKi) is on record as “upregulates IL-8 secretion”. Moreover, in the series on IL-8 secretion (increasing doses of TRAIL, 24 hours), the IL-8 production entry is recorded as “increased dose-dependently”. Besides, the cell death result in [4] (TRAIL doses up to 100 ng/mL) is recorded as “detectable cell death only in small numbers of cells”. The “resistance of spheres to TRAIL-induced cell death vs parental cells” value in series [6] is “significantly more resistant”. For the same compound, in the series with MiaPaCa2 tumors, the “#tumors at 6 wks” value is recorded as 10/10, the “% tumor presence at 6 wks” value is recorded as 100%, the Kidney mets was 0 and the Liver mets came to 2. In the series with MiaPaCa2 tumors, this compound returned a Peritoneal mets of 1 and a Spleen mets of 0.

By viability is commonly meant a per cent measure of how many cells are alive, often set against a control. A lower viability goes with more harm to the cells.
